Data reported in paper PMC5626944 (Frontiers in Pharmacology, 2017).
Structures can show the parent of a compound that is named as a salt. Where two headings read alike, the source gives them in different places.

Columns and labels:
[1] = system: α3β4 nAChRs; parameters: method as in Carroll et al., 2015; settings: ref Carroll et al., 2015; cited from earlier work
[2] = system: α7 nAChRs; parameters: method as in Carroll et al., 2015; settings: ref Carroll et al., 2015; cited from earlier work
[3] = system: WT and α6L9′S mice; test: Locomotor assay in a novel environment; format: in vivo, mouse; settings: for Ambulatory activity in a novel environment: 0.5 μmol/kg ip (nicotine 0.08 mg/kg, TC299423 0.09 mg/kg)
Experimental: Mice were habituated to the experimental room for 2 h prior to the experiment. Horizontal locomotor activity was recorded using an infrared photobeam activity cage system (San Diego Instruments; San Diego, CA, United States). After habituating to the experimental room, mice were placed singly in a novel cage. Ambulations were recorded when two contiguous photobeams were broken in succession, preventing activity from being recorded by most sedentary animals. Ambulation events were measured for 45 min with four 15 s intervals per min. Mice were given a total of two intraperitoneal (ip) injections. First, mice were pre-injected with saline or 1 mg/kg mecamylamine before being placed in the activity cages.

[4] = system: WT mice; test: Hot plate assay; format: in vivo, mouse; settings: 0.3 mg/kg ip each, 55°C hot plate, p < 0.05
Experimental: Mice were again habituated to the experimental room for ≥2 h prior to testing. […] This apparatus is a heated metal plate, maintained at 55°C, enclosed by a clear acrylic plastic cylinder (∼10 cm in diameter), within which the mouse is free to move. […] If the mouse urinates during the assay, it is immediately removed from the hot plate. The time that the mouse remains on the hot plate prior to showing signs of discomfort is recorded. Doses were administered using a Latin-square crossover design. A day without testing occurred between each test.

[5] = target: α4β2* nAChRs (Mus musculus, UniProt O70174+Q9ERK7); test: biochemical; format: biochemical; settings: 10 μM
Experimental: (§1) Regions of interest were dissected from fresh mouse brains and homogenized in ice-cold isotonic sucrose (0.32 M), buffered with HEPES (5 mM, pH 7.5). The suspension was centrifuged at 12,000 × g for 20 min.
Superfusion proceeded at 0.7 mL/min for 10 min before stimulation with agonist for 20 s. Selected aliquots were perfused with α-CtxMII (50 nM) for 3 min immediately before stimulation. […] Fractions (∼0.1 mL) were collected into 96-well plates at 10 s intervals for 4 min (starting ∼1 min before stimulation).

[6] = system: WT mice; test: Marble burying assay; format: in vivo, mouse; settings: 0.3 mg/kg ip
[7] = target: α6β2* nAChRs (Mus musculus, UniProt Q9ERK7+Q9R0W9); test: biochemical; format: biochemical; settings: 10 μM
Experimental: as §1, with “min. The pellet was re-suspended in the appropriate uptake buffer ([Grady et al., 2001]; [Salminen et al., 2004]; [Marks et al., 2006]) and used immediately.” for “min.”
Superfusion was carried out at 22°C using a buffer containing: NaCl, 128 mM; KCl, 2.4 mM; CaCl2, 3.2 mM; MgSO4, 1.2 mM; KH2PO4, 1.2 mM; HEPES, 25 mM; glucose, 10 mM; ascorbic acid, 1 mM; pargyline, 0.01 mM; 0.1% BSA; nomifensine, 1 μM (to prevent the re-uptake of dopamine); atropine, 1 μM (to prevent muscarinic receptor activation); pH 7.5. Superfusion proceeded at 0.7 mL/min for 10 min before stimulation with agonist for 20 s. Selected aliquots were perfused with α-CtxMII (50 nM) for 3 min immediately before stimulation. This concentration of α-CtxMII was sufficient to inhibit α6β2^∗-nAChRs in the mouse striatum ([Salminen et al., 2004], [2007]). Fractions (∼0.1 mL) were collected into 96-well plates at 10 s intervals for 4 min (starting ∼1 min before stimulation). After adding 0.15 mL of Optiphase SuperMix scintillation cocktail, radioactivity was measured using a 1450 MicroBeta TriLux counter (Perkin Elmer Life Sciences).

[8] = In vitro metabolism in microsomes; format: in vitro ADME; settings: human microsomes
[9] = In vitro metabolism in microsomes; format: in vitro ADME; settings: rat microsomes
[10] = system: CYP3A4; test: Turnover by recombinantly expressed human cytochrome P450 isoforms; format: in vitro ADME; settings: 100 pmol/mL enzyme, 37 °C
Experimental: (§2) S2 Table. In vitro metabolism of TC299423, compared w ith varenicline.
(§3) Human Rat microsomes Turnover by human cytochrome P450 isoforms […]
(§4) The assay mixtures (final incubation volume of 125 μL) in 0.255 M phosphate buffer with 0.575% (w/v) KCl (pH 7.4) contained PiB (1.0 μM), […] a recombinantly expressed cytochrome P450 enzyme preparation (1A2, 2C9, 2C19, 2D6, 3A4, and FMO3) at 100 pmol/mL. After a 10 min preincubation at 37 °C, the reaction was initiated by addition of 2.0 mM NADPH and incubated for 60 min. The reactions were terminated by the addition of two volumes of DMSO. Samples were subsequently centrifuged at 4,000 rpm for 10 min. From the resulting supernatant, 10 μ L was analyzed by liquid chromatography/tandem mass spectrometry (LC-MS/MS). Control experiments were performed by substituting the active enzyme preparation by cell preparations containing no recombinant human CYP. a, Data for clearance are given as μL /min/mg protein. […]
(§5) c, Data for cytochrome P450 turnover and for human flavin- containing monooxygenase 3 (FMO3) are given as percent decline over 60 min.

[11] = system: CYP2C9; test: as above; format: in vitro ADME; settings: 100 pmol/mL enzyme, 37 °C
Experimental: as §2, §3, §4, §5

[12] = system: CYP2C19; test: as above; format: in vitro ADME; settings: 100 pmol/mL enzyme, 37 °C
Experimental: as §2, §3, §4, §5

[13] = system: CYP2D6; test: as above; format: in vitro ADME; settings: 100 pmol/mL enzyme, 37 °C
Experimental: as §2, §3, §4, §5

[14] = system: CYP1A2; test: as above; format: in vitro ADME; settings: 100 pmol/mL enzyme, 37 °C
Experimental: as §2, §3, §4, §5

Chain of α4β2* nAChRs (O70174 31-629): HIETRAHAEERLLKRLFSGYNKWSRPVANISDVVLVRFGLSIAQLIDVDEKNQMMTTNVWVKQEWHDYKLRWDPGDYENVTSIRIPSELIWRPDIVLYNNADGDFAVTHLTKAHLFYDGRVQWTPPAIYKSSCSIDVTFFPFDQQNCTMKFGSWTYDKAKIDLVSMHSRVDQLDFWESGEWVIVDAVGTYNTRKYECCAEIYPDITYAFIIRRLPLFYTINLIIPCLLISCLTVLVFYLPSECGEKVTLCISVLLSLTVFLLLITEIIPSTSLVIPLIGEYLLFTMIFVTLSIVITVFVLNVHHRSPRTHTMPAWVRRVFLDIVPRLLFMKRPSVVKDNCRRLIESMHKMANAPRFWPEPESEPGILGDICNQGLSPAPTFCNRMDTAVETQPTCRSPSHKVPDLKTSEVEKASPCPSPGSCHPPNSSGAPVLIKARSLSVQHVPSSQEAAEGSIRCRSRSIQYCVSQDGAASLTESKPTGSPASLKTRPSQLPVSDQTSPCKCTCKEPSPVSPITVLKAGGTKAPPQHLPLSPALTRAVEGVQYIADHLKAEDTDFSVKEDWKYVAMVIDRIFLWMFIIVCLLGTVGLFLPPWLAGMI
Chain of α4β2* nAChRs (Q9ERK7 26-501): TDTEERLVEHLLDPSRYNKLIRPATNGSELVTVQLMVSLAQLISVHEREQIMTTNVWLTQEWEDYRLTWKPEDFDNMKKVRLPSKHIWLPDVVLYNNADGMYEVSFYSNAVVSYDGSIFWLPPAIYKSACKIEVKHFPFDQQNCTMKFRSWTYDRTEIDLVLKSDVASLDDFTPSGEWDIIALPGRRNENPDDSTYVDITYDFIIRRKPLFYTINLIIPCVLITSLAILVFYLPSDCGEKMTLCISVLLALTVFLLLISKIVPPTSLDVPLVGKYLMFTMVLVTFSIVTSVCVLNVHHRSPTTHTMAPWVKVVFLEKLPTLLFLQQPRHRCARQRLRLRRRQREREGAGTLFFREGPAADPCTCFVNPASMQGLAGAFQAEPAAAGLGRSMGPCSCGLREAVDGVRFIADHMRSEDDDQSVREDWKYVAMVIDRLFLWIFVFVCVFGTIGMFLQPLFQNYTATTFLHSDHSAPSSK
Chain of α6β2* nAChRs (Q9R0W9 31-494): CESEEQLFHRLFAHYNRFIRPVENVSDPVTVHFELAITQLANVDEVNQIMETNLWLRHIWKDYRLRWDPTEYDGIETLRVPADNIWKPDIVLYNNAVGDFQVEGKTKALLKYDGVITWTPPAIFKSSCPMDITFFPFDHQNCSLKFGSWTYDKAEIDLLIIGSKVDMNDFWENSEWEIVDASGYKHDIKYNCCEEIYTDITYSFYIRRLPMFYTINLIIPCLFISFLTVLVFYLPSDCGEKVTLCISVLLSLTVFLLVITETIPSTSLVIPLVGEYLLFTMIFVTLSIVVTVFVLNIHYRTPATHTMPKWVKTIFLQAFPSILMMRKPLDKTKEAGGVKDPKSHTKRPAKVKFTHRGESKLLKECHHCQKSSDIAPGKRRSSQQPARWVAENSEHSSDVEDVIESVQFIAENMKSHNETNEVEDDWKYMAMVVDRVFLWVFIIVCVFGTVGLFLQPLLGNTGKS
Chain of α6β2* nAChRs (Q9ERK7 26-501): as the sequence (Q9ERK7 26-501) above
Chain of α6β2* nAChRs (Q8BMN3 31-464 partner): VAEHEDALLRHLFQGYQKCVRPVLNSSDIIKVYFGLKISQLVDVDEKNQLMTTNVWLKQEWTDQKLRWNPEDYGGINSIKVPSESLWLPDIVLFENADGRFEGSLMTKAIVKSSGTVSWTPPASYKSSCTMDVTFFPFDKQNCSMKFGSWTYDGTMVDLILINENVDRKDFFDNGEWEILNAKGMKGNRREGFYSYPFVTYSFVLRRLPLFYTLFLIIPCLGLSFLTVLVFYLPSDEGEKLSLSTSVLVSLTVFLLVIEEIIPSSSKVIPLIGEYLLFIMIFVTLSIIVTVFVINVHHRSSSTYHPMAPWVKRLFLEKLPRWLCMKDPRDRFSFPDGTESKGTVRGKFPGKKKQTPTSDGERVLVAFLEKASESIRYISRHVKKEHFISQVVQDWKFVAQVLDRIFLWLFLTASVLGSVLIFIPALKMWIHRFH

In the case of `c1cc2c(cn1)[C@@H]1CC[C@H](CCC2)N1` [PHT, (+)-pyrido[3,4]homotropane], the EC50 [1] is listed as 430 nM and the EC50 [2] is listed as 660 nM.

In the case of `CNC1(C)C2CCC(C2)C1(C)C` (centres unmarked) [mecamylamine], the “Effect of pre-injection on nicotine- and TC299423-induced increases in ambulation” value ([3]; α6L9′S mice, 1 mg/kg ip pre-injection) is reported as “blocked”.

In the case of `CN1CCC[C@H]1c1cccnc1` [nicotine, (L)-nicotine hydrogen tartrate], the “Antinociceptive effect compared with varenicline” value [4] is reported as “significantly greater than that of varenicline”, the “α-CtxMII-resistant [3H]-dopamine release elicited” value [5] is reported as 7.78 ± 0.83 units and the “Marbles buried compared with saline” value [6] is reported as “significantly fewer marbles”. For the same compound, the “Marbles buried compared with varenicline” value ([6]; p < 0.001) was “fewer marbles”, the “α-CtxMII-sensitive [3H]-dopamine release elicited” value [7] was 3.63 ± 0.81 units and the “Ambulatory activity in a novel environment” value ([3]; WT mice) was “Neither TC299423 nor nicotine affected WT ambulation”. The “Ambulatory activity in a novel environment” value ([3]; α6L9′S mice) was “dramatically increased the ambulatory activity”.

With `c1cnc2cc3c(cc2n1)[C@@H]1CNC[C@H]3C1` [varenicline, Varenicline tartrate, reference compound] the half-life [8] was 43 min, the microsomal CLint ([8]; read-out: Clearance) was 39 µL/min/mg and the “Marbles buried compared with saline” value [6] was “significantly fewer marbles”. The half-life [9] was 10 min, the microsomal CLint ([9]; read-out: Clearance) was 233 µL/min/mg and the “Turnover by CYP3A4” value [10] was 50 percent decline over 60 min. The “Turnover by CYP2C9” value [11] was 0 percent decline over 60 min, the “Turnover by CYP2C19” value [12] was 0 percent decline over 60 min and the “Turnover by CYP2D6” value [13] was 39 percent decline over 60 min. The “Turnover by CYP1A2” value [14] was 7 percent decline over 60 min.
